Measurements: patent publication US20250281629A1, “COMPOSITIONS AND METHODS FOR ANTI-PHOSPHOCHOLINE ACTIVE IMMUNOTHERAPY” (Duke University, priority 2022, published 2025)
Where no end group is shown, it is not given here. C11H22NO6P = phosphorylcholine group attached via 2-methacryloyloxyethyl phosphorylcholine

Tests used:
[1] = Thioflavin T (ThT) assay for β-sheets; type: physicochemical; conditions: peak fluorescence intensity around 488 nm
Procedure: Thioflavin T (ThT) Assay. β-sheets were detected by Thioflavin T (ThT) (Alfa Aesar, J61043) binding and resulting fluorescence. 180 μL of 0.05 mM ThT was added to 20 μL of 2 mM nanofibers in a 96-well black plate and allowed to incubate for 1 min. Fluorescence intensity was then determined using an excitation wavelength of 440 nm and emission wavelengths from 460-600 nm at 5 nm intervals. A peak fluorescence intensity at an emission wavelength around 488 nm is indicative of β-sheets.

[2] = tested on: dendritic cells (F4/80−CD11c+); assay: Nanofiber uptake in i.p. lavage cells, flow cytometry: dendritic cells; type: in vivo, mouse; conditions: 4 hours after i.p. injection of TAMRA-labeled nanofibers
Procedure: Nanofiber Uptake and Evaluation. The cell types present and their propensity to uptake nanofibers in the i.p. space was tested by injecting mice i.p. with 100 μL of 2 mM TAMRA-labeled fluorescent nanofibers. 4 hours later, mice were euthanized and i.p. lavage was conducted via the injection of 2 mL of cold 1×PBS into the peritoneal cavity and massaging the abdomen for 30 seconds. The solution was then carefully extracted from the i.p. space and the cells were isolated followed by rinsing with ice cold flow buffer (2% heat-inactivated FBS in 1×PBS). The cells present were treated with mouse BD Fc Block (Clone: 2.4G2) (BD Biosciences, 553142) in flow buffer on ice for 30 min and then washed and stained with antibodies against the following markers: CD5-APC (Clone: 53-7.3) (BioLegend, 100626), F4/80-PerCP/Cy5.5 (Clone: BM8) (BioLegend, 123128), CD19-APC/Cy7 (Clone: 6D5) (BioLegend, 115530), CD11c-PE/Cy7 (Clone: N418) (BioLegend, 117318), and CD86-BV605 (Clone: GL1) (BD Biosciences, 2272591) in flow buffer for 30 min on ice. TAMRA-fluorescence as an indication of nanofiber uptake was measured on the PE channel. Cells were then washed in flow buffer and stained with DAPI. Flow cytometry was conducted on a BD FACSCanto II cytometer and the results were analyzed using FlowJo software.

[3] = tested on: CD4^+ T-cell depleted mice; assay: Anti-PC responses in CD4+ T-cell depleted mice; type: in vivo, mouse; conditions: for anti-PC IgM in the absence of CD4+ T cells: anti-CD4 antibody; for main anti-PC IgG subclass in CD4+ T cell-depleted mice: week 3
Procedure: Detection of Anti-PC Antibody Responses via ELISA. Anti-PC antibody responses in serum collected from the submandibular vein in mice were measured using ELISA. Briefly, plates were coated with 20 μg/mL PC-BSA (Biosearch Technologies, PC-1011-10) in 1×PBS or just 1×PBS at 4° C. overnight. The next day, the plates were washed using 1×PBST (1×PBS with 0.05% Tween 20) and then blocked three times with Superblock blocking buffer solution (Thermo Fisher, 37515). Serum diluted from 1:10^2 to 1:10^5 in 1% BSA in 1×PBST was the added to the plate and allowed to incubate for 2 h at room temperature. Anti-PC IgG was detected using HRP-conjugated Fcγ fragment-specific goat anti-mouse IgG (Jackson Immuno Research, 15-035-071). IgG subclasses and IgM anti-PC antibodies were detected using Southern Biotech HRP-conjugated goat anti-mouse antibodies (IgG1, IgG2b, IgG2c, IgG3, & IgM: 5300-05B). Area under the curve (AUC) measurements were calculated using background-subtracted absorbance values at dilutions from 1:10^2 to 1:10^5. Antibody titers were defined using an absorbance cutoff above background of 0.2 OD, where titer 2 represents an OD value greater than 0.2 at 1:10^2 dilution and so on up to titer 5 at 1:10^5 dilution.
T Cell ELISpot. T-cell responses were measured using ELISpot. Mice were euthanized 6 days after booster immunization and splenocytes were isolated using Lympholyte-M (Cedarlane, c15031). Splenocytes were stimulated with either media (negative control), Concanavalin A (ConA) (Sigma, C5275) (positive control), or PADRE peptide (1 μM) and then plated at 250,000 cells/well on IL-4 and IFN-γ capture antibody-coated 96-well ELISpot plates (Millipore, MSIPS4510). IL-4 (BD, 551878) and IFNγ (BD, 551881) detection antibodies followed by streptavidin-alkaline phosphatase (Mabtech, 3310-0) and Sigmafast BCIP/NBT (Sigma, B5655) were used to develop cell spots. The quantification of cell spots was then outsourced to Zellnet Consulting Services which uses a Zeiss KS ELISPOT reader. ELISpot counts shown represent spot counts after the subtraction of spots in the negative control wells for each sample.
CD4 T cell Depletion. Mice were given 200 μg of either anti-mouse CD4 (InVivoMAb, clone GK1.5, BioXCell, BE0003-1) or isotype control (InVivoMAb rat IgG2b isotype control anti-KLH, clone LTF-2, BioXCell, BE0090) antibodies in 100 μL InVivoPure pH 6.5 dilution buffer (BioXCell, IP0065) via i.p. injection at days −3, −1, 3, 7, 11, 15, and 19. On days 0 and 22, cells from the spleen, draining lymph nodes (axial, brachial, and inguinal), and mesenteric lymph nodes of unimmunized mice were isolated via physical separation using a 70 μm filter in order to verify CD4^+ T-cell depletion (FIGS. 11A-11E, representative flow cytometry shown in FIG. 12). The cells were treated with mouse BD Fc Block (Clone: 2.4G2) (BD Biosciences, 553142) in flow buffer on ice for 30 min and then washed and stained with antibodies against the following markers: CD4-FITC (Clone: GK1.5) (BD Biosciences, 557307), CD45-PE (Clone: 30-F11) (BioLegend, 103106), CD8a-PE-Cy7 (Clone: 53-6.7 (BD Biosciences, 552877), and CD3e-BV605 (Clone: 145-2C11) (BD Biosciences, 563004) in flow buffer for 30 min on ice. Cells were then washed in flow buffer and stained with DAPI. Flow cytometry was conducted on a BD FACSCanto II cytometer and the results were analyzed using FlowJo software. To determine the importance of PADRE T-cell epitope inclusion in immunizations, anti-CD4 or isotype control antibody-administered mice were immunized on days 0 and 14, with anti-PC antibodies measured at days 0, 7, and 22 via ELISA and T-cell responses measured on day 22 via ELISpot.

[4] = i.p. day 0 and 14, with PADRE-Q11 and CpG

C11H22NO6P-CSGSG-QQKFQFQFEQQ-NH2 (C(C11H22NO6P)SGSGQQKFQFQFEQQ-NH2) [PC-Q11, phosphodiester PC-Q11]
thioflavin-T binding (β-sheet fibrillar structure) [1]: bound thioflavin-T (ThT) | DCs that acquired nanofibers [2]: about 67% | total anti-PC IgG production, dependence on CD4+ T cells [3, 4]: reliant on CD4^+ T cells | anti-PC IgM in the absence of CD4+ T cells [3, 4]: generated by both immunizations in the absence of CD4^+ T cells | main anti-PC IgG subclass in CD4+ T cell-depleted mice [3]: IgG3

(C11H22NO6P)n-CCCCSGSG-QQKFQFQFEQQ-NH2 (CCCCSGSGQQKFQFQFEQQ-NH2; not fully specified; cysteine pairing not given here; also: phosphorylcholine groups (C11H22NO6P) n=1-4, attachment not placed) [PCM-Q11, linear multi-PC conjugate]
thioflavin-T binding (β-sheet fibrillar structure) [1]: bound thioflavin-T (ThT) | DCs that acquired nanofibers [2]: < 30% | anti-PC IgM, isotype control vs CD4-depleted [3, 4]: significantly greater for PCM-Q11 immunizations when CD4^+ T cells were present | total anti-PC IgG production, dependence on CD4+ T cells [3, 4]: reliant on CD4^+ T cells | anti-PC IgM in the absence of CD4+ T cells [3, 4]: generated by both immunizations in the absence of CD4^+ T cells | main anti-PC IgG subclass in CD4+ T cell-depleted mice [3]: IgG3
